Laboratory results: PubChem BioAssay (NCI)
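Tested at 5 concentrations; 48 h exposure; 96-well plates; endpoints linearly interpolated, else capped at highest concentration. The concentration for 50% growth inhibition is given as GI50. TGI: total growth inhibition.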

Experiments:
Assay in all cases: NCI-60 cell line screen, 48 h
[1] = test system: CAKI-1 renal
[2] = test system: HL-60(TB) leukemia
[3] = test system: IGROV1 ovarian
[4] = test system: M14 melanoma
[5] = test system: OVCAR-3 ovarian
[6] = test system: OVCAR-5 ovarian
[7] = test system: SNB-75 CNS
[8] = test system: SW-620 colon
[9] = test system: T-47D breast
[10] = test system: UACC-257 melanoma

SMILES	GI50 [1]	TGI [1]	GI50 [2]	TGI [2]	GI50 [3]	TGI [3]	GI50 [4]	TGI [4]	GI50 [5]	TGI [5]	GI50 [6]	TGI [6]	GI50 [7]	TGI [7]	GI50 [8]	TGI [8]	GI50 [9]	TGI [9]	GI50 [10]	TGI [10]
COc1cnc2c(c1)C(=O)c1c-2n(CCCN2CCCC2)c(=O)c2cc([N+](=O)[O-])ccc12	< 0.01 µM	1.46 µM	0.0299 µM	1.06 µM	0.0187 µM	1.36 µM	< 0.01 µM	1.01 µM	0.0586 µM	0.901 µM	0.163 µM	1.52 µM	0.0457 µM	14.3 µM	< 0.01 µM	1.34 µM	0.0179 µM	12.8 µM	0.176 µM	11 µM
CCSC[C@@H]1C[C@](O)(c2ccc(Cl)cc2)[C@@H](c2ccc(Cl)cc2)O1	27.6 µM	63.2 µM	15.2 µM	36 µM	15.3 µM	32.3 µM	15.3 µM	29.6 µM	18.8 µM	36.1 µM	18.2 µM	34.3 µM	16.3 µM	32.4 µM	14.4 µM	33.6 µM	14.8 µM	38.6 µM	15.1 µM	30.1 µM
COc1cc(-c2nn(-c3cccc(NC(=O)Nc4ccc(Cl)c(C(F)(F)F)c4)c3)cc2-c2ccncc2)ccc1Cl	0.992 µM	4.72 µM	1.17 µM	> 32.5 µM	1.2 µM	4.22 µM	1.08 µM	3.71 µM	0.889 µM	2.44 µM	3.09 µM	11 µM	1.28 µM	10.3 µM	1.29 µM	29.9 µM	1.23 µM	> 32.5 µM	1.21 µM	6.03 µM
Cc1c(Cn2c(C)nc3c(C(=O)O)cc(N4CCOCC4)cc32)cccc1C(F)(F)F	7.44 µM	> 100 µM	72.9 µM	> 100 µM	40.2 µM	> 100 µM	37.1 µM	> 100 µM	52.3 µM	> 100 µM	81.7 µM	> 100 µM	12.3 µM	> 100 µM	45.5 µM	> 100 µM	36.7 µM	> 100 µM	61.1 µM	> 100 µM
